Where two headings read alike, the source gives them in different places.
Assays:
[1] = target: T1, GST-tagged Tnks-1 (1023-1327 aa) (Homo sapiens, UniProt O95271); test: TNKS1 activity ELISA (autoparsylation); format: biochemical
T1 construct: GST-tagged Tnks-1 (1023-1327 aa, prepared in-house); made in house
Procedure: (§1) Description of the TNKS1 and TNKS2 ELISA Assay
(§2) Biochemical Activity Testing of TNKS 1 and 2: Activity ELISA (Autoparsylation Assay)
(§3) For analysis of autoparsylation activity of TNKS 1 and 2 an activity ELISA is performed: In the first step GST tagged TNKS is captured on a Glutathione coated plate. Then the activity assay with biotinylated NAD is performed in the absence/presence of the compounds. During the enzymatic reaction GST tagged TNKS transfers biotinylated ADP-ribose to itself from biotinylated NAD as co-substrate. For the detection streptavidin-HRP conjugate is added that binds to the biotinylated TNKS and is thereby captured to the plates. The amount of biotinylated resp. autoparsylated TNKS is detected with a luminescence substrate for HRP. The level of the luminescence signal correlates directly with the amount of autoparsylated TNKS and therefore with activity of TNKS.
(§4) The activity ELISA is performed in 384 well Glutathione coated microtiter plates (Express capture Glutathione coated plate, Biocat, Heidelberg, Germany). The plates are pre-equilibrated with PBS. Then the plates are incubated with 50 μl 20 ng/well GST-tagged Tnks-1 (1023-1327 aa, prepared in-house), respectively GST-tagged Tnks-2 (873-1166 aa, prepared in-house) in assay buffer (50 mM HEPES, 4 mM Mg-chloride, 0.05% Pluronic F-68, 2 mM DTT, pH 7.7) overnight at 4° C. The plates are washed 3 times with PBS-Tween-20. The wells are blocked by incubation at room temperature for 20 minutes with 50 μl blocking buffer (PBS, 0.05% Tween-20, 0.5% BSA). Afterwards the plates are washed 3 times with PBS-Tween-20. The enzymatic reaction is performed in 50 μl reaction solution (50 mM HEPES, 4 mM Mg-chloride, 0.05% Pluronic F-68, 1.4 mM DTT, 0.5% DMSO, pH 7.7) with 10 μM bio-NAD (Biolog, Life science Inst., Bremen, Germany) as co-substrate in the absence or presence of the test compound (10 dilution concentrations) for 1 hour at 30° C. The reaction is stopped by 3 times washing with PBS-Tween-20. For the detection 50 μl of 20 ng/μl Streptavidin, HRP conjugate (MoBiTec, Göttingen, Germany) in PBS/0.05% Tween-20/0.01% BSA are added and the plates are incubated for 30 minutes at room temperature. After three times washing with PBS-Tween-20 50 μl of SuperSignal ELISA Femto Maximum sensitivity substrate solution (ThermoFisherScientific (Pierce), Bonn, Germany) are added. Following a 1 minute incubation at room temperature luminescence signals are measured with an Envision multimode reader (Perkin Elmer LAS Germany GmbH) at 700 nm. The full value used is the inhibitor-free reaction. The pharmacological zero value used is XAV-939 (Tocris) in a final concentration of 5 μM. The inhibitory values (IC50) are determined using either the program Symyx Assay Explorer® or Condosseo® from GeneData.

[2] = target: T2, GST-tagged Tankyrase-1 (1023-1327 aa) (Homo sapiens, UniProt O95271); test: Tankyrase 1 autoparsylation HTRF enzyme assay; format: biochemical
T2 construct: GST-tagged Tankyrase-1 (1023-1327 aa)
T2 sequence (O95271 1023-1327): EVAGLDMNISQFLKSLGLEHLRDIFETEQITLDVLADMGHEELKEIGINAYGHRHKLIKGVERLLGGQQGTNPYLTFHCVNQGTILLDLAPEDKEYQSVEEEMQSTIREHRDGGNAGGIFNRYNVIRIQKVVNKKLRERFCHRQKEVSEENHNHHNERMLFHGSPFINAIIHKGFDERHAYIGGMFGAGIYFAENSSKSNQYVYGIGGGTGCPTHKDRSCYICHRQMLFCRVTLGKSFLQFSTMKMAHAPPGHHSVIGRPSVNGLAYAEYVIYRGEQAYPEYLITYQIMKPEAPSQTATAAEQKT
Procedure: (§5) Biochemical Activity Testing of Tankyrase 1 and 2: Autoparsylation Assay
(§6) The autoparsylation assay is run in two steps: the enzymatic reaction in which GST-tagged Tankyrase-1, resp Tankyrase-2 transferred biotinylated ADP-ribose to itself from biotinylated NAD as co-substrate and the detection reaction where a time resolved FRET between cryptate labelled anti-GST bound to the GST tag of the enzyme and Xlent® labelled-streptavidin bound the biotin-parsylation residue is analysed. The autoparsylation activity was detectable directly via the increase in HTRF signal.
(§7) The autoparsylation assay is performed as 384-well HTRF® (Cisbio, Codolet, France) assay format in Greiner low volume nb 384-well microtiter plates and is used for high throughput screen. 250 nM GST-tagged Tankyrase-1 (1023-1327 aa), respectively about 250 nM GST-tagged Tankyrase-2 (873-1166 aa) and 5 μM bio-NAD (Biolog, Life science Inst., Bremen, Germany) as co-substrate are incubated in a total volume of 5 μl (50 mM HEPES, 4 mM Mg-chloride, 0.05% Pluronic F-68, 1.4 mM DTT, 0.5% DMSO, pH 7.7) in the absence or presence of the test compound (10 dilution concentrations) for 90 min at 30° C. The reaction is stopped by the addition of 1 μl 50 mM EDTA solution. 2 μl of the detection solution (1.6 μM SA-Xlent® (Cisbio, Codolet, France), 7.4 nM Anti-GST-K® (Eu-labelled anti-GST, Cisbio, Codolet, France) in 50 mM HEPES, 800 mM KF, 0.1° A. BSA, 20 mM EDTA, 0.1% CHAPS, pH 7.0) are added. After 1 h incubation at room temperature the HTRF is measured with an Envision multimode reader (Perkin Elmer LAS Germany GmbH) at excitation wavelength 340 nm (laser mode) and emission wavelengths 615 nm and 665 nm. The ratio of the emission signals is determined. The full value used is the inhibitor-free reaction. The pharmacological zero value used is XAV-939 (Tocris) in a final concentration of 5 μM. The inhibitory values (IC50) are determined using either the program Symyx Assay Explorer® or Condosseo® from GeneData.

[3] = target: T3, GST-tagged Tnks-2 (873-1166 aa) (Homo sapiens, UniProt Q9H2K2); test: TNKS2 activity ELISA (autoparsylation); format: biochemical
T3 construct: GST-tagged Tnks-2 (873-1166 aa, prepared in-house); made in house
T3 sequence (Q9H2K2 873-1166): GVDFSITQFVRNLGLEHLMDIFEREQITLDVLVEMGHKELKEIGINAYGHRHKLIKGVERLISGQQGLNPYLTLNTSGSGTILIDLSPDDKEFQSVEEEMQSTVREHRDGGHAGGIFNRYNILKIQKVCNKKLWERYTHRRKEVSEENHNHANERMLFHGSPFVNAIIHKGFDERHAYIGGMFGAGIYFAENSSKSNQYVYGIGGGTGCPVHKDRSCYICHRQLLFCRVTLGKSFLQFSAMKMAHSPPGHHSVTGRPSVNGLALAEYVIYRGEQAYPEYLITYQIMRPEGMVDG
Procedure: as §1, §2, §3, §4

[4] = target: T4, GST-tagged Tankyrase-2 (873-1166 aa) (Homo sapiens, UniProt Q9H2K2); test: Tankyrase 2 autoparsylation HTRF enzyme assay; format: biochemical
T4 construct: GST-tagged Tankyrase-2 (873-1166 aa)
T4 sequence (Q9H2K2 873-1166): as above
Procedure: as §5, §6, §7

His-tagged Parp-1 = target: T5, His-tagged Parp-1 (Homo sapiens, UniProt P09874); test: PARP-1 autoparsylation HTRF assay; format: biochemical; conditions: 150 min at 23° C
T5 construct: purchased Enzo Life Sciences GmbH, Lörrach, Germany
T5 sequence (P09874 whole entry): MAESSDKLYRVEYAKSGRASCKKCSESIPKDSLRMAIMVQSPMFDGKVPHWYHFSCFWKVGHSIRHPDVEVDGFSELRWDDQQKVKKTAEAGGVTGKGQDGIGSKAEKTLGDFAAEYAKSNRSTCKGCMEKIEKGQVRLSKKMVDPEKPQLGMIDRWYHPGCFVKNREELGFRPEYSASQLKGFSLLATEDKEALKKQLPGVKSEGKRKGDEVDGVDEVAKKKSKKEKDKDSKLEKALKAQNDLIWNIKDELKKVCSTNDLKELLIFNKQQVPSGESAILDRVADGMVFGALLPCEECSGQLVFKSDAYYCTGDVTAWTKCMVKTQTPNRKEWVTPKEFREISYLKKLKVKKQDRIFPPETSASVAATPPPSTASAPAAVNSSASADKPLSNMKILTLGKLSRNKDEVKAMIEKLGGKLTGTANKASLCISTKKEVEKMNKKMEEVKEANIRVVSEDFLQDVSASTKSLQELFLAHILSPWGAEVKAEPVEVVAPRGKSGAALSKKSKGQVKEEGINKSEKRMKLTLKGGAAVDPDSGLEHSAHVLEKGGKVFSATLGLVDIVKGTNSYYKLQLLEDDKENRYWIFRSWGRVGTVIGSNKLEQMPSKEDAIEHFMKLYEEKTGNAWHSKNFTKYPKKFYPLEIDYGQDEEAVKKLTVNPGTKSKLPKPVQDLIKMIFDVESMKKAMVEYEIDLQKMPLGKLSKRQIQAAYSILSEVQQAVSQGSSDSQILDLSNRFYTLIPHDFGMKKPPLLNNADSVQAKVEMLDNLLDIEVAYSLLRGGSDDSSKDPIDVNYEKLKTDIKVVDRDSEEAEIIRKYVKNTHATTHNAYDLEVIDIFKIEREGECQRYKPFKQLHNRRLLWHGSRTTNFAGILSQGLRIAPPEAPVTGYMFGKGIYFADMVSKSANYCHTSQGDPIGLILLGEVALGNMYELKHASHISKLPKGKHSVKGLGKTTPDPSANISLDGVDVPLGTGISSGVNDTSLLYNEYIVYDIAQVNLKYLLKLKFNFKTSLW
Description: Description of the PARP1 Assay
Biochemical Activity Testing of PARP-1: Autoparsylation Assay
The autoparsylation assay is run in two steps: the enzymatic reaction in which His-tagged Parp-1 transfers biotinylated ADP-ribose/ADP-ribose to itself from biotinylated NAD/NAD as co-substrate and the detection reaction where a time resolved FRET between cryptate labelled anti-His antibody bound to the His tag of the enzyme and Xlent® labelled-streptavidin bound the biotin parsylation residue is analysed. The autoparsylation activity is detectable directly via the increase in HTRF signal.
The autoparsylation assay is performed as 384-well HTRF® (Cisbio, Codolet, France) assay format in Greiner low volume nb 384-well microtiter plates. 35 nM His-tagged Parp-1 (human, recombinant, Enzo Life Sciences GmbH, Lörrach, Germany) and a mixture of 125 nM bio-NAD (Biolog, Life science Inst., Bremen, Germany) and 800 nM NAD as co-substrate are incubated in a total volume of 6 μl (100 mM Tris/HCl, 4 mM Mg-chloride, 0.01% IGEPAL® CA630, 1 mM DTT, 0.5% DMSO, pH 8, 13 ng/μl activated DNA (BPS Bioscience, San Diego, US)) in the absence or presence of the test compound (10 dilution concentrations) for 150 min at 23° C. The reaction is stopped by the addition of 4 μl of the Stop/detection solution (70 nM SA-Xlent® (Cisbio, Codolet, France), 2.5 nM Anti-His-K® (Eu-labelled anti-His, Cisbio, Codolet, France) in 50 mM HEPES, 400 mM KF, 0.1% BSA, 20 mM EDTA, pH 7.0). After 1 h incubation at room temperature the HTRF is measured with an Envision multimode reader (Perkin Elmer LAS Germany GmbH) at excitation wavelength 340 nm (laser mode) and emission wavelengths 615 nm and 665 nm. The ratio of the emission signals is determined. The full value used is the inhibitor-free reaction. The pharmacological zero value used is Olaparib (LClabs, Woburn, US) in a final concentration of 1 μM. The inhibitory values (IC50) are determined using either the program Symyx Assay Explorer® or Condosseo® from GeneData.

[5] = tested on: Tankyrase (Axin2 level in DLD1 cells); test: Cellular inhibition of Tankyrase, Axin2 Luminex assay in DLD1 cells; format: cell-based; conditions: Homo sapiens, DLD-1, 24 hours, Axin2 level increase, read-out: IC50 Cell assay
Procedure: Measurement of Cellular Inhibition of Tankyrase
Since Tankyrases have been described to modulate cellular level of Axin2 (Huang et al., 2009; Nature) the increase of Axin2 level is used as read-out for determination of cellular inhibition of Tankyrases in a Luminex based assay.
Cells of the colon carcinoma cell line DLD1 are plated in 96 well plates with 1.5×10^4 cells per well. Next day, cells are treated with a serial dilution of test compound in seven steps as triplicates with a final DMSO concentration of 0.3%. After 24 hours, cells are lysed in lysis buffer (20 mM Tris/HCl pH 8.0, 150 mM NaCl, 1% NP40, 10% Glycerol) and lysates are cleared by centrifugation through a 96 well filter plate (0.65 μm). Axin2 protein is isolated from cell lysates by incubation with a monoclonal anti-Axin2 antibody (R&D Systems #MAB6078) that is bound to fluorescent carboxybeads. Then, bound Axin2 is specifically detected with a polyclonal anti-Axin2 antibody (Cell Signaling #2151) and an appropriate PE-fluorescent secondary antibody. The amount of isolated Axin2 protein is determined in a Luminex^200 machine (Luminex Corporation) according to the manufacturer's instruction by counting 100 events per well. Inhibition of Tankyrase by test compounds results in higher levels of Axin2 which directly correlates with an increase of detectable fluorescence. As controls cells are treated with solvent alone (neutral control) and with a Tankyrase reference inhibitor IWR-2 (3E-06 M) which refers as control for maximum increase of Axin2. For analysis, the obtained data are normalized against the untreated solvent control and fitted for determination of the EC50 values using the Assay Explorer software (Accelrys).

[6] = activity ELISA, 1 hour at 30° C, read-out: IC50 TNKS1 ELISA
[7] = HTRF autoparsylation, 90 min at 30° C, read-out: IC50 TNKS1 enzyme assay
[8] = activity ELISA, 1 hour at 30° C, read-out: IC50 TNKS2 ELISA
[9] = HTRF autoparsylation, 90 min at 30° C, read-out: IC50 TNKS2 enzyme assay

T1 sequence (O95271 1023-1327): as the sequence (O95271 1023-1327) above

An IC50 [1, 6] of 0.3 to 3 µM, an IC50 [2, 7] of 0.3 to 3 µM and an IC50 [3, 8] of 0.3 to 3 µM were found for O=C(Cc1cccc(OC(F)(F)F)c1)Nc1nncc2ccccc12 [Compound A5, N-phthalazin-1-yl-2-(3-trifluoromethoxyphenyl)-acetamide] in this work. It also gave an IC50 [4, 9] of 3 to 50 µM and an IC50 (His-tagged Parp-1) of 3 to 50 µM.

An IC50 [1, 6] of 0.3 to 3 µM, an IC50 [2, 7] of 0.3 to 3 µM and an IC50 [3, 8] of 0.3 to 3 µM were found for N#Cc1cccc(CC(=O)Nc2nncc3ccccc23)c1 [Compound A6, 2-(3-cyanophenyl)-N-phthalazin-1-yl-acetamide] in this work. The IC50 [4, 9] was 3 to 50 µM and the IC50 (His-tagged Parp-1) was 0.3 to 3 µM.

An IC50 [1] of 0.3 to 3 µM, an IC50 [2] of 0.3 to 3 µM and an IC50 [3] of 0.3 to 3 µM were found for O=C(Cc1cccc([N+](=O)[O-])c1)Nc1nncc2ccccc12 [Compound A7, 2-(3-nitrophenyl)-N-phthalazin-1-yl-acetamide] in this work. For the same compound, the IC50 [4] was 0.3 to 3 µM and the IC50 (His-tagged Parp-1) was 0.3 to 3 µM.

An IC50 [1, 6] of under 0.3 µM, an IC50 [2, 7] of under 0.3 µM and an IC50 [3, 8] of under 0.3 µM were found for O=C(Cc1ccc(OC(F)(F)F)cc1)Nc1nncc2ccccc12 [Compound A8, N-phthalazin-1-yl-2-(4-trifluoromethoxyphenyl)-acetamide] in this work. It also gave an IC50 [4, 9] of 0.3 to 3 µM and an IC50 (His-tagged Parp-1) of 3 to 50 µM.

An IC50 [1, 6] of under 0.3 µM, an IC50 [2, 7] of 0.3 to 3 µM and an IC50 [3, 8] of under 0.3 µM were found for CC(C)(C)c1ccc(CC(=O)Nc2nncc3ccccc23)cc1 [Compound A9, 2-(4-tert-butylphenyl)-N-phthalazin-1-yl-acetamide] in this work. The IC50 [4, 9] was 0.3 to 3 µM and the IC50 (His-tagged Parp-1) was 3 to 50 µM.

An IC50 [2, 7] of 3 to 50 µM, an IC50 [4, 9] of 3 to 50 µM and an IC50 (His-tagged Parp-1) of 3 to 50 µM were found for O=C(Cc1c(Cl)cccc1Cl)Nc1nncc2ccccc12 [Compound A10, 2-(2,6-dichlorophenyl)-N-phthalazin-1-yl-acetamide] in this work.

An IC50 [2, 7] of 3 to 50 µM and an IC50 [4, 9] of 3 to 50 µM were found for CCOc1ccc(CC(=O)Nc2nncc3c(F)cccc23)cc1 [Compound A11, 2-(4-ethoxy-phenyl)-N-(5-fluoro-phthalazin-1-yl)-acetamide] in this work.

An IC50 [2, 7] of 0.3 to 3 µM and an IC50 [4, 9] of 3 to 50 µM were found for COc1ccc(CC(=O)Nc2nncc3c(F)cccc23)cc1 [Compound A12, N-(5-fluoro-phthalazin-1-yl)-2-(4-methoxy-phenyl)-acetamide] in this work.

An IC50 [1, 6] of under 0.3 µM, an IC50 [2, 7] of 0.3 to 3 µM and an IC50 [3, 8] of under 0.3 µM were found for O=C(CCC1CCCCC1)Nc1nncc2ccccc12 [Compound A13, 3-cyclohexyl-N-phthalazin-1-yl-propionamide] in this work. It also gave an IC50 [4, 9] of 0.3 to 3 µM and an IC50 (His-tagged Parp-1) of 3 to 50 µM.

An IC50 [1, 6] of under 0.3 µM, an IC50 [2, 7] of under 0.3 µM and an IC50 [3, 8] of under 0.3 µM were found for O=C(CCc1ccccc1)Nc1nncc2ccccc12 [Compound A14, 3-phenyl-N-phthalazin-1-yl-propionamide] in this work. For the same compound, the IC50 [5] was 3 to 50 µM and the IC50 [4, 9] was 0.3 to 3 µM.

An IC50 [2, 7] of 3 to 50 µM and an IC50 [4, 9] of 3 to 50 µM were found for Cc1cccc2c(NC(=O)Cc3ccccc3)nncc12 [Compound A19, N-(5-methyl-phthalazin-1-yl)-2-phenyl-acetamide] in this work.

An IC50 [2, 7] of 3 to 50 µM and an IC50 [4, 9] of 3 to 50 µM were found for COc1ccc(CC(=O)Nc2nncc3c(C)cccc23)cc1 [Compound A21, 2-(4-methoxy-phenyl)-N-(5-methyl-phthalazin-1-yl)-acetamide] in this work.
